Assay [1] addresses Galectin-3 (Mus musculus) (UniProt P16110). The experiment in a line: Relative affinity for mouse Galectin-3 compared to D-galactose-methyl-beta-glycoside. Type of assay: functional.
For the next assay, the target named is Galectin-3 (Mus musculus, UniProt P16110). The assay can be described thus: Dissociation constant for mouse Galectin-3.

Here are results for 15 molecules from ChEMBL document CHEMBL1140248, “3-(1,2,3-Triazol-1-yl)-1-thio-galactosides as small, efficient, and hydrolytically stable inhibitors of galectin-3” (Bioorg Med Chem Lett, 2005).

Chain of Galectin-3 (P16110 whole entry): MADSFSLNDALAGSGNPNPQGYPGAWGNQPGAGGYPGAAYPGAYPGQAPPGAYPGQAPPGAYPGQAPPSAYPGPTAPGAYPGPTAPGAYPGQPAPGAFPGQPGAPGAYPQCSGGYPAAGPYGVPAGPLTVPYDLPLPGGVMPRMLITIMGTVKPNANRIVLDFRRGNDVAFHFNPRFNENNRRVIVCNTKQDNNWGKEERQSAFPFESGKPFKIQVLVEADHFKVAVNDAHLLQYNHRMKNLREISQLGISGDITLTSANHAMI
Chain of Galectin-3 (Mus musculus) (P16110 whole entry): as above

Regarding `CSC1OC(CO)C(O)C(n2cc(C(=O)NCc3ccccc3)nn2)C1O` (stereo not drawn), the Affinity in assay [1] came to 42.

`CCCc1cn(C2C(O)C(CO)OC(SC)C2O)nn1` (stereo not drawn) had a Kd at Galectin-3 of 4600 µM. In assay [1], this molecule returned an Affinity of 1.

In turn, LACTOSE, ANHYDROUS registered an Affinity in assay [1] of 20.

`COC(=O)c1cn(C2C(O)C(CO)OC(SC)C2O)nn1` (stereo not drawn) came in with a Kd on Galectin-3 of 1410 µM. In assay [1], this molecule yielded an Affinity of 3.2.

In turn, `CS[C@H]1O[C@@H](COC2O[C@@H](OC([C@H](O)CO)[C@H](O)[C@@H](NC(C)=O)C(C)=O)[C@H](O)[C@@H](O)[C@H]2O)[C@H](O)[C@@H](NC(=O)c2ccc3ccccc3c2)[C@@H]1O` (stereo partly drawn) gave a Kd at Galectin-3 of 67 µM. Besides, the Affinity in assay [1] is 64.

At Galectin-3, `CSC1OC(CO)C(O)C(n2cc(C(=O)NCCN3CCOCC3)nn2)C1O` (stereo not drawn) showed a Kd of 571 µM. This molecule also showed an Affinity in assay [1] of 7.5.

For `CCCCNC(=O)c1cn(C2C(O)C(CO)OC(SC)C2O)nn1` (stereo not drawn), the Kd at Galectin-3 was 124 µM. The Affinity in assay [1] was 36.

Molecule `CSC1OC(CO)C(O)C(n2cc(C(=O)NCCCO)nn2)C1O` (stereo not drawn) registered a Kd on Galectin-3 of 386 µM. The molecule also had an Affinity in assay [1] of 12.

With `CSC1OC(CO)C(O)C(n2cc(C3(O)CCCCC3)nn2)C1O` (stereo not drawn), the Kd at Galectin-3 is 1750 µM. In assay [1], the Affinity is 2.5.

Regarding `CS[C@H]1O[C@@H](COC2O[C@@H](O)[C@H](O)[C@@H](O)[C@H]2O)[C@H](O)[C@@H](NC(=O)c2ccc3ccccc3c2)[C@@H]1O` (stereo partly drawn), at Galectin-3, the Kd came to 4400 µM. In assay [1], the Affinity came to 1.

Turning to `CSC1OC(CO)C(O)C(NC(=O)c2ccccc2)C1O` (stereo not drawn), on Galectin-3, the Kd was found to be 2690 µM. The molecule further displayed an Affinity in assay [1] of 1.7.

Molecule `CSC1OC(CO)C(O)C(n2ccnn2)C1O` (stereo not drawn) had a Kd on Galectin-3 above 20000 µM. The molecule further returned an Affinity in assay [1] below 0.2.

The molecule `CSC1OC(CO)C(O)C(NC(=O)c2ccc3ccccc3c2)C1O` (stereo not drawn) gave a Kd on Galectin-3 of 272 µM. In assay [1], the Affinity came out at 16.

In the case of `CSC1OC(CO)C(O)C(n2cc(-c3ccccc3)nn2)C1O` (stereo not drawn), binding at Galectin-3 was characterised by a dissociation constant (Kd) of 147 µM. The Affinity in assay [1] amounted to 29.

`CNC(=O)c1cn(C2C(O)C(CO)OC(SC)C2O)nn1` (stereo not drawn) showed a Kd on Galectin-3 of 230 µM. The molecule also registered an Affinity in assay [1] of 19.
